Data: US20060128660A1, “FK228 analogs and methods of making and using the same” (Wisconsin Alumni Research Foundation, priority 2004, published 2006)

Assays:
Trx = settings: human primary breast and colon tumor tissues, Butler et al. 2002; cited from earlier work
HDAC = test: Western blot analysis of histones (tetra-AcLys H4) isolated from treated Drosophila S2 cells; assay type: cell-based
Experimental: Drosophila S2 cells can be cultured in Schneider's medium and grown as previously described by Wade and co-workers for periods ranging from 12 h to 96 h (Ballestar et al., 2001, Eur. J. Biochem. 268: 5397-5406). Cells may then be lysed and nuclear extracts prepared according to Thompson and co-workers (Steffan, 2001, Nature 413: 739-743). Lysates are then be subjected to differing concentrations of HDAC inhibitors and/or reductants (Barlow et al., 2001, Exp. Cell Res. 265: 90-103).
H2B detection was used to ensure equivalent protein loading to each well. […] Cells in all reactions were incubated at ambient temperature in media that contained 20 μM of each respective synthetic agent. Incubations were conducted for either 48 or 72 hours prior to nuclei isolation and processing.
H2B detection was used to ensure equivalent protein loading to each well. […] Lane 1 is a dioxane solvent control and concentrations of “drug” in cell medium are indicated above each lane. All cells were treated for a period of 48 hours at ambient temperature prior to nuclei isolation and processing.
Briefly, 2×10^6 cells in 10 mL medium are brought to 2×10^−5 M in synthetic intermediate and then allowed to incubate at ambient temperature for specified times. […] Histone H2B was detected in each case in order to verify equal protein loadings for each lane.

Compound | effect on Trx (Trx) | acetylated H4 in histones isolated from treated cells (Western blot) (HDAC; 20 μM, 48 or 72 hours, ambient temperature (FIG. 3A)) | cellular HDAC inhibition (Western blot data) (HDAC; at −20 μM concentration)
O=C(CCCCCCC(=O)Nc1ccccc1)NO [SAHA] | down regulates Trx | – | –
O=C(CCCCCS)NC(CO)CSCc1ccccc1 (stereo not drawn) [compound 33] | – | a significant amount of acetylated H4 | potent cellular HDAC inhibitors
